{"source": "patent US20230381196A1", "about": "“COMPOSITIONS COMPRISING BISFLUOROALKYL-1,4-BENZODIAZEPINONE COMPOUNDS FOR TREATING ADENOID CYSTIC CARCINOMA” (AYALA PHARMACEUTICALS INC., priority 2020, published 2023)", "key": {"[1]": {"test_system": "recurrent or metastatic ACC with Notch-activating mutations", "experiment": "Phase 2 trial of Compound (1) in ACC with Notch-activating mutations: response", "format": "in vivo, human", "conditions": "4 mg IV once weekly", "text": "FIG. 1. Schema and Baseline Characteristics. Subjects enrolled in the Phase 2 Clinical Trial had (1) Recurrent/metastatic (R/M) adenoid cystic carcinoma (ACC); (2) Notch-activating mutations; (3) Disease progression within prior 6 months, and (4) Eastern Cooperative Oncology Group (ECOG) score <2 (Fully active; no performance restrictions. 1. Strenuous physical activity restricted; fully ambulatory and able to carry out light work. 2. Capable of all self-care but unable to carry out any work activities). Cohort 1 was administered Compound (1) QW at a dose of 4 mg (n=45), and Cohort 2 will be administered Compound (1) QW at a dose of 6 mg (n=42). The primary endpoint is ORR per RECIST v1.1 or modified MDA Bone Response Criteria, by Investigator. Secondary endpoints include Duration of Response (DoR), Progression-Free Survival (PFS), Overall Survival (OS), Safety, and PharmacoKinetics (PKs). The study was conducted in North America, Europe and Israel. aData cutoff: Jul. 30, 2020. ^bSubjects may select more than one category. MDA, M D Anderson.\nFIG. 2. Best Overall Responses by Investigator Review (n=40)^a. Subjects were administered 4 mg Compound (1) once per week. The percent change in the tumor diameter is presented for individual subjects. Subjects with Partial Response (PR) are marked in yellow; Stable disease (SD) in dark blue; Progressive Disease (PD) in gray; and Not Evaluable (NE) in black. *confirmed responses.\nA Phase 2, Simon 2-Stage optimal design, non-comparative, open-label, single-arm, multicenter study of Compound (1) was conducted in subjects with recurrent or metastatic (RIM) ACC (bone-exclusive disease allowed) who harbor Notchl, Notch2, Notch3, or Notch4 activating mutations (Notch1-4′ nn. Subjects with disease progression ≤6 months of enrollment or newly diagnosed metastatic disease were allowed.\nSubjects with known activating Notch mutations, per NGS test results gave their informed consent and underwent screening assessments to determine study eligibility over a 28-day screening period. Available mutation status from prior tests with any commercially available or locally developed NGS assay were acceptable. Any newly characterized mutation (such as tandem duplication, variant allele frequency etc.), was evaluated with the sponsor on a case-by-case basis.\n(§1) Starting on Cycle 1, Day 1, eligible subjects enrolled in the study received Compound (1), 4 mg intravenously (IV) weekly (qwk), on Days 1, 8, 15, and 22 of each 28-day cycle until disease progression, unacceptable toxicity, or consent withdrawal. Paired tumor biopsies were collected at screening (fresh or archival within 5 years) and upon confirmation of disease progression (provided medically safe and not contraindicated). Samples were sent to a central vendor for NGS analysis. Formalin-fixed paraffin embedded (FFPE) slides were evaluated by IHC for NICDI stain.\nDuring the treatment period, subjects underwent radiographic assessments every 8 weeks (±3 days) for review by Independent Central Review (ICR) as well as by the Investigator. Other assessments performed included safety exploratory biomarkers.\nCompound (1) is a potent and selective inhibitor of gamma secretase-mediated Notch signaling. Compound (1) was administered IV at the dose of 4 mg every 7 days (1 day; QW) over 28-day cycles until disease progression, unacceptable toxicity, or consent withdrawal. Compound (1) injection was developed as a single-use sterile solution (1.2 mg/mL; […]) for IV administration in clinical studies; each vial contained 5 mL (equivalent of 6 mg per vial). It was formulated as a sterile concentrate containing Cremophor and ethanol and was diluted with 0.9% Sodium Chloride injection, USP (normal saline) or 5% Dextrose Injection, USP (D5W) to concentrations between 0.01 mg/mL and 0.06 mg/mL. […]"}, "[2]": {"test_system": "ACC83 cells", "experiment": "Boyden chamber invasion assay", "format": "cell-based, Human", "conditions": "10 nM for 14 days, 24 h transwell", "experimental": "FIG. 11C. Effect of Compound (1) monotherapy on cell invasion in ACC83 cell line. ACC83 cells were treated with either 10 nM Compound (1) or DMSO (control) for 14 days. Cells were then placed transwell chambers and after 24 h, the membranes were stained with crystal violet. Cells that had migrated through the membrane were photographed (left panel) and counted. The average number of ACC83 cells per field that migrated through the membrane are shown in a bar plot (right panel).\nMethods: A wound healing assay was carried out to assess migration potential of ACC83 and ACC112 cells. Cells were cultured in triplicate in 6-well plates (1×10^6 cells per well) containing culture inserts (Ibidi). On reaching 90% confluence, the inserts were removed, and cells were cultured for 12 hr. Gap area in individual wells was determined using ImageJ. The gap area percentage was calculated as the gap area at 12 hr relative to the gap area at 0 hr. A Boyden chamber assay was carried out to assess the invasion potential of ACC83 and ACC112 cells. […] After 24 h incubation, the cells in the upper chamber were carefully removed with cotton swab, and the cells that had invaded through Matrigel were stained with 1DiffQuick, photographed at 40× magnification and quantified across three random fields."}, "[3]": {"test_system": "Notch3", "experiment": "Inhibition of Constitutive Notch Signaling", "format": "cell-based"}, "[4]": {"test_system": "T-ALL tumors", "experiment": "Tumor growth in mice harboring T-ALL tumors", "format": "in vivo", "experimental": "FIG. 7A. Inhibition of tumor growth with 6 mg/kg Compound (1). Mice harboring T-ALL tumors were administered Compound (1) 6 mg/kg, QDx3 per week, Days 15-17; 22-24; 29-31, Nirogacestat 150mg/kg, QD Days 15-28, or vehicle using the protocol described, and tumor volume was measured 15-60 days post-baseline.\nFIG. 7B. Inhibition of tumor growth with 4 mg/kg Compound (1). […]"}, "[5]": {"experiment": "Phase 2 trial: Compound (1) plasma concentration / PK", "format": "in vivo, human", "experimental": "FIGS. 5A-5B. Compound (1) plasma concentration over time since last dose^a The concentration of Compound (1) in plasma in subjects on days 0-7 after being administered 4 mg Compound (1) on week 1 (FIG. 5A) and on week 4 (FIG. 5B). Dots represent individual subject data; lines represent geometric means. Orange lines: Phase 2 data. Green lines: Phase 1 data.\nFIG. 6. Effect of CYP inhibitors and substrates on Compound (1) PK^b. Effect of concomitant administration of CYP inhibitors or substrates on the PK of Compound (1) in subjects administered 4 mg Compound (1) once per week. Box plots represent median, 25/75 percentile, and 2/98 percentile; groups with >1 subject represented are shown. 2C19; 2D6 (weak), 1A2, 3A4, 2D6\nas §1"}}}
{"smiles": "CN1C(=O)[C@@H](NC(=O)[C@H](CCC(F)(F)F)[C@H](CCC(F)(F)F)C(N)=O)N=C(c2ccccc2)c2ccccc21", "note": "[Compound (1), (2R,3S)—N-((3S)-1-methyl-2-oxo-5-phenyl-2,3-dihydro-1H-1,4-benzodiazepin-3-yl)-2,3-bi s(3,3,3-trifluoropropyl)succinamide]", "values": [{"measurement": "partial responses achieved by week 16", "setting": "[1]", "result": "5 out of 6"}, {"measurement": "subjects in the study for at least 24 weeks or still in the study not yet having reached 24 weeks", "setting": "[1]; 16 out of 40", "result": 40, "unit": "%"}, {"measurement": "Missing/NE, best overall response (unconfirmed)", "setting": "[1]; by investigator, n=40", "result": "3% (1)"}, {"measurement": "PD, best overall response (unconfirmed)", "setting": "[1]; by investigator, n=40", "result": "30% (12)"}, {"measurement": "PR, best overall response (unconfirmed)", "setting": "[1]; by investigator, n=40", "result": "15% (6)"}, {"measurement": "overall response rate", "setting": "[1]; by investigator, n=40", "result": 15, "unit": "%"}, {"measurement": "radiographic scans, baseline vs beginning of Cycle 3 (Week 8)", "setting": "[1]; 4 subjects who achieved partial response", "result": "tumor shrinkage"}, {"measurement": "cell invasion", "setting": "[2]", "result": "substantially decreased the invasion"}, {"measurement": "IC50", "setting": "[3]", "result": 3.4, "unit": "nM"}, {"measurement": "tumor volume", "setting": "[4]; 4 mg/kg QDx3 per week, Days 18-33, compared to vehicle and Crenigacestat 6 mg/kg QD Days 18-33", "result": "inhibited the increase in tumor volume"}, {"measurement": "tumor volume", "setting": "[4]; 6 mg/kg QDx3 per week, Days 15-17, 22-24, 29-31, compared to vehicle and Nirogacestat 150 mg/kg QD Days 15-28", "result": "inhibited the increase in tumor volume"}, {"measurement": "PK of plasma concentration compared with Phase 1 study", "setting": "[5]; 4 mg dose, week 1 and week 4", "result": "equivalent to the PK from the Phase 1 study"}, {"measurement": "effect of inhibitors or substrates of different CYPs on the PK", "setting": "[5]; 4 mg once per week, concomitant CYP inhibitors or substrates", "result": "no significant effect"}]}
